Data from patent US8084456B2, “Pyrazine-based tubulin inhibitors” (YM Biosciences Australia Pty Ltd, priority 2002, dated 2011).

Columns and labels:
TelJak3 = TelJak3 (Homo sapiens, UniProt P52333); assay: Cellular growth assay (MTT), BaF3 TEL/JAK3 cells; assay type: cell-based; settings: 40 hr incubation, read-out: TelJak3 (inhibition of 50% of cellular growth)
[1] = test system: PC3 (Prostate Cancer) cells; assay: Cellular growth assay (MTT), PC3; assay type: cell-based; settings: Homo sapiens, PC-3, 40 hr incubation, read-out: PC3 (inhibition of 50% of cellular growth)
Method: (§1) K562 (Chronic Myeloid Leukemia), PC3 (Prostate Cancer), and DU145 (Prostate Cancer) were obtained from the American Type Culture Collection (ATCC). K562 was grown in RPMI, with 10% FBS with Glutamx added. DU145 cells were cultured in DMED, with 10% FBS and Glutamx and MEM non-essential amino acids added. PC3 cells were grown in F12K medium, with 10% FBS and Glutamx and MEM non-essential amino acids added. All cells were grown at 37° C. in 5% CO2.

Tubulin = Tubulin assay (turbidometric microtubule assembly); assay type: biochemical; settings: at 50 μM, absorbance at 340 nm, 37° C.
Method: Turbidometric assays of microtubule assembly were performed by incubating microtubule protein in cuvettes at 37° C. in a thermostatically controlled spectrophotometer measuring the change in absorbance at 340 nm over time. The microtubule protein was incubated with the each test compound at 0° C. and polymerisation was initiated by addition of 1 mM GTP, prior to heating to 37° C.

[2] = test system: DU145 (Prostate Cancer) cells; assay: Cellular growth assay (MTT), DU145; assay type: cell-based; settings: Homo sapiens, DU-145, 40 hr incubation, read-out: DU145 (inhibition of 50% of cellular growth)
Method: as §1

[3] = test system: K562 (Chronic Myeloid Leukemia) cells; assay: Cellular growth assay (MTT), K562; assay type: cell-based; settings: Homo sapiens, 40 hr incubation, read-out: K562 (inhibition of 50% of cellular growth)
Method: as §1

TelJak2 = TelJak2 (Homo sapiens, UniProt O60674); assay: Cellular growth assay (MTT), BaF3 TEL/JAK2 cells; assay type: cell-based; settings: 40 hr incubation, read-out: TelJak2 (inhibition of 50% of cellular growth)
Chain of TelJak2 (O60674 with tags, fused parts or gaps): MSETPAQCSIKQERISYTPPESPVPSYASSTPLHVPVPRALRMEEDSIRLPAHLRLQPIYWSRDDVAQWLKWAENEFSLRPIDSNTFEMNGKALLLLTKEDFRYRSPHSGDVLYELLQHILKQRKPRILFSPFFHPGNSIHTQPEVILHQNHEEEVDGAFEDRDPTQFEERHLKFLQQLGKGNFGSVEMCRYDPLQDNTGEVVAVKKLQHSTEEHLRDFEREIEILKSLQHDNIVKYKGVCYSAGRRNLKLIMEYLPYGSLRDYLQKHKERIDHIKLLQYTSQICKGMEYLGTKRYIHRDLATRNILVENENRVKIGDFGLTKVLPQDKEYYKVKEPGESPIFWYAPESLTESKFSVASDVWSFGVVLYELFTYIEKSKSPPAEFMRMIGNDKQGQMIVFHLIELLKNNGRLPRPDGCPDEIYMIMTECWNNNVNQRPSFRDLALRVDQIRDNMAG

Chain of TelJak3 (P52333 with tags, fused parts or gaps): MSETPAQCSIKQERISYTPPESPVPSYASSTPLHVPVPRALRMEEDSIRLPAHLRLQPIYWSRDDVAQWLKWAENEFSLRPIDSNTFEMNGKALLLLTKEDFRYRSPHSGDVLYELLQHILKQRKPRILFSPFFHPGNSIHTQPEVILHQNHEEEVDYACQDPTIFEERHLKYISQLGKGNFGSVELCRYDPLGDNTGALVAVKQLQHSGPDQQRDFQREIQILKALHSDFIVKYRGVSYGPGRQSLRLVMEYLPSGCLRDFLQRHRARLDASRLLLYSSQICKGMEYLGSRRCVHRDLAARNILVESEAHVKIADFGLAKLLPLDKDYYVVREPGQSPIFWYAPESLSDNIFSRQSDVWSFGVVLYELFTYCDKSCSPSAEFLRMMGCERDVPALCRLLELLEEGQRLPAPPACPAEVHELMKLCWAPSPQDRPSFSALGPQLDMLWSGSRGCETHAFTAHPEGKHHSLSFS

Row | Structure (SMILES) | IC50 (TelJak3) [µM] | IC50 [1] [µM] | Tubulin (inhibition of tubulin polymerisation) (Tubulin) | IC50 [2] [µM] | IC50 [3] [µM] | IC50 (TelJak2) [µM]
1 | CCCC(Nc1cncc(-c2ccc(O)c(OC)c2)n1)c1cccnc1 (stereo not drawn) | ≤ 20 | ≤ 20 | + (inhibited tubulin polymerisation by greater than 50% at 50 μM) | ≤ 20 | ≤ 20 | ≤ 20
2 | CCCC(Nc1cncc(-c2ccc(O)c(OC)c2)n1)c1cc(F)cc(F)c1 (stereo not drawn) | ≤ 20 | > 20 | + (inhibited tubulin polymerisation by greater than 50% at 50 μM) | > 20 | ≤ 20 | ≤ 20
3 | CCCC(Nc1nc(-c2ccc(N)c(OC)c2)cnc1C)c1ccccc1 (stereo not drawn) | ≤ 20 | ≤ 20 | + (inhibited tubulin polymerisation by greater than 50% at 50 μM) | ≤ 20 | ≤ 20 | ≤ 20
4 | CCCC(Nc1cncc(-c2ccc(O)c(OC)c2)n1)c1ccc(OC)nc1 (stereo not drawn) | ≤ 20 | > 20 | + (inhibited tubulin polymerisation by greater than 50% at 50 μM) | ≤ 20 | ≤ 20 | ≤ 20
5 | CCCC(Nc1cncc(-c2ccc(O)c(OC)c2)n1)c1ccc(OC)cc1 (stereo not drawn) | ≤ 20 | ≤ 20 | + (inhibited tubulin polymerisation by greater than 50% at 50 μM) | ≤ 20 | ≤ 20 | ≤ 20
6 | CCCC(Nc1cncc(-c2ccc(N)c(OC)c2)n1)c1ccc(F)cc1 (stereo not drawn) | ≤ 20 | ≤ 20 | + (inhibited tubulin polymerisation by greater than 50% at 50 μM) | ≤ 20 | ≤ 20 | ≤ 20
7 | CCCC(Nc1cncc(-c2ccc3c(c2)OCO3)n1)c1ccccc1 (stereo not drawn) | ≤ 20 | ≤ 20 | + (inhibited tubulin polymerisation by greater than 50% at 50 μM) | ≤ 20 | ≤ 20 | ≤ 20
8 | CCCC(Nc1cncc(-c2ccc(O)c(OC)c2)n1)c1cccc(O)c1 (stereo not drawn) | ≤ 20 | > 20 | + (inhibited tubulin polymerisation by greater than 50% at 50 μM) | > 20 | ≤ 20 | ≤ 20
9 | CCCC(Nc1cncc(-c2ccc(O)c(OC)c2)n1)c1cccc(OC)c1 (stereo not drawn) | ≤ 20 | ≤ 20 | + (inhibited tubulin polymerisation by greater than 50% at 50 μM) | ≤ 20 | ≤ 20 | ≤ 20
10 | CCCC(Nc1cnc(C)c(-c2ccc(N)c(OC)c2)n1)c1ccccc1 (stereo not drawn) | ≤ 20 | ≤ 20 | + (inhibited tubulin polymerisation by greater than 50% at 50 μM) | ≤ 20 | ≤ 20 | ≤ 20
11 | CCCC(Nc1cncc(-c2ccc(O)c(OC)c2)n1)c1cccc(C(F)(F)F)c1 (stereo not drawn) | ≤ 20 | ≤ 20 | + (inhibited tubulin polymerisation by greater than 50% at 50 μM) | ≤ 20 | ≤ 20 | ≤ 20
12 | CCCC(Nc1cncc(-c2cc(C)c(O)c(C)c2)n1)c1ccc(F)cc1 (stereo not drawn) | ≤ 20 | ≤ 20 | + (inhibited tubulin polymerisation by greater than 50% at 50 μM) | ≤ 20 | ≤ 20 | ≤ 20
13 | CCCC(Nc1nc(-c2ccc(O)c(OC)c2)cnc1C)c1ccccc1 (stereo not drawn) | ≤ 20 | ≤ 20 | + (inhibited tubulin polymerisation by greater than 50% at 50 μM) | ≤ 20 | ≤ 20 | ≤ 20
14 | CCCC(Nc1cncc(-c2ccc(O)c(OC)c2)n1)c1cccc(C(=O)OC)c1 (stereo not drawn) | ≤ 20 | ≤ 20 | + (inhibited tubulin polymerisation by greater than 50% at 50 μM) | ≤ 20 | ≤ 20 | ≤ 20
15 | CCCC(Nc1cncc(-c2ccc(NC(C)=O)c(OC)c2)n1)c1ccc(F)cc1 (stereo not drawn) | ≤ 20 | ≤ 20 | + (inhibited tubulin polymerisation by greater than 50% at 50 μM) | ≤ 20 | ≤ 20 | ≤ 20
16 | CCC[C@H](Nc1cncc(-c2ccc(O)c(OC)c2)n1)c1cccc(F)c1 | ≤ 20 | ≤ 20 | + (inhibited tubulin polymerisation by greater than 50% at 50 μM) | ≤ 20 | ≤ 20 | ≤ 20
